A short description of the series: Population pharmacokinetic analysis (NONMEM, two-compartment model) of vancomycin serum concentrations from routine TDM.
[1] abbreviates: structural base model without covariates, estimate (RSE %).

In the case of `CN[C@H](CC(C)C)C(=O)N[C@H]1C(=O)N[C@@H](CC(N)=O)C(=O)N[C@H]2C(=O)N[C@H]3C(=O)N[C@H](C(=O)N[C@H](C(=O)O)c4cc(O)cc(O)c4-c4cc3ccc4O)[C@H](O)c3ccc(c(Cl)c3)Oc3cc2cc(c3O[C@@H]2O[C@H](CO)[C@@H](O)[C@H](O)[C@H]2O[C@H]2C[C@](C)(N)[C@H](O)[C@H](C)O2)Oc2ccc(cc2Cl)[C@H]1O` [Vancomycin], the “estimated exponent of TBW on V1 and V2” value (alternative model with power function instead of linear TBW, not retained) was 1.05. The CL (structural base model without covariates, 1892 children 1-18 years, normal weight, overweight, obese, intermittent i.v. infusion, estimate (RSE %)) is given as 2.17 (2) L/h. Further, under setting [1], the “Q (inter-compartmental clearance between V1 and V2)” value is 2.24 (4) L/h; the “V1 (volume of distribution of central compartment)” value is 5.27 (8) L; the “V2 (volume of distribution of the peripheral compartment)” value is 11.9 (8) L.

The values above are taken from PMC8038958 (The AAPS Journal, 2021).
